Experiment [1] concerns LTD4 induced bronchoconstriction. Briefly: In vivo inhibition of bronchospasm induced in guinea pigs by exogenously administered leukotrienes (Example 11). Set-up: species or system guinea pig (male Hartley). Particulars: 10 minutes before induction of bronchospasm (LTD4), guinea pig; for inhibition in vivo at 25 mg/kg / inhibition in vivo at 50 mg/kg: Cavia porcellus, read-out: % Inhibition of Max AUC.

Experiment [2] deals with ovalbumin induced bronchospasm. Briefly: In vivo inhibition of ovalbumin induced bronchospasm in sensitized guinea pigs mediated by endogenous mediators (Example 12). Set-up: species or system guinea pig (male Hartley). Particulars: Cavia porcellus, 10 minutes before ovalbumin challenge, guinea pig, read-out: % Inhibition of Max AUC. The procedure: The assay of this Example measures the in vivo ability of the compounds of the invention to inhibit the bronchospasm induced in guinea pigs by endogenous mediators of the bronchoconstriction.
(§1) The assay is carried out as follows:
Male Hartley strain guinea pigs weighing 250-350 g are sensitized to chicken ovalbumin (OA) (10 mg i.p.) on days 1 and 3 and used starting on day 26. The animals are anesthetized with pentobarbital sodium (50 mg/kg, i.p.), bilateral vagotomy is performed, and the jugular vein is cannulated for injection of drugs and the carotid artery for monitoring blood pressure. The trachea is cannulated for artificial ventilation by miniature Starling pump and for indirect measurement of respiratory volume changes as described, infra. Succinylcholine (2 mg/kg, i.v.) is administered to arrest spontaneous respiration. A cyclooxygenase inhibitor, indomethacin (10 mg/kg in tris buffer, i.v. at 9 min.) is administered to shunt arachidonic metabolism to lipoxygenase pathways. One minute later, chlorpheniramine (1.0 mg/kg in saline, i.v.) is given to attenuate the histaminic component of anaphylactic bronchoconstriction. Test drugs (dissolved in propylene glycol, polyethylene glycol or saline) are administered either intraduodenally or by aerosol at 2 or 10 minutes before antigen challenge. Anaphylactic bronchoconstriction is induced by administration by breaths of aerosolized OA (1%) or by intravenous administration of 0.1-0.3 mg/kg OA in saline. Control animals receive solvent (2 ml/kg i.d. or appropriate aerosol) in place of drug.
Respiratory volume changes are determined by a calibrated piston whose travel is recorded, via a linear transducer, on a Beckman Dynograph recorder. Maximal bronchoconstrictor volume is determined by clamping off the trachea at the end of the experiment. Overflow volumes at minutes 1, 3 and 5 are obtained from the recorded charts.
Area under the volume overflow curve (AUC) is estimated, using the overflow values at 1, 3 and 5 minutes, and expressed as a percentage of the maximal overflow AUC (equation 1): [formula] Drug effects are reported as percent inhibition of % max AUC values obtained from appropriate control animals (equation 2): [formula] Students t-test for unpaired data is used to determine statistical significance. Dose response curves are generated and ED50 doses are interpolated from the regression lines.
Results for compounds of the invention in this assay, using LTD4 for induction of bronchospasm, are given below: […]

The subject of experiment [3] is 5-HETE synthesis by rat glycogen elicited polymorphonuclear leukocytes. Nature of the experiment: Inhibition of synthesis of 5-HETE by rat glycogen elicited polymorphonuclear leukocytes (Example 10). Particulars: Leukocyte, [14C]5-HETE synthesis, rat PMN; for IC50: read-out: 50% Inhibitory Concentration (IC50). Format: cell-based, rat (female Wistar). The procedure:
as §1
Peritoneal PMN are obtained from female Wistar rats (150-250 g) that received an i.p. injection of 6% glycogen (10 ml). After 24 hours, rats are killed by CO2 asphyxiation and peritoneal cells are harvested by peritoneal lavage using Ca^++ and Mg^++ free Hanks' balanced salt solution (HBSS). The peritoneal exudate is centrifuged at 400 g for 10 minutes. After centrifugation, the lavaged fluid is removed and the cell pellet is […] in HBSS containing Ca^++ and Mg^++ and 10 mM L-cystein at a concentration of 2×10^7 cells/ml. To 1 ml portions of cell suspens, test drugs or vehicle are added and incubated at 37° C. for 10 minutes. Following this preincubation, the calcium ionophore (10 μM), A23187, is added together with 0.5 μCi [^14 C] arachidonic acid and further incubated for 10 minutes. The reaction is stopped by the addition of ice cold water (3 ml) and acidifying to pH 3.5. Lipoxygenase products are then extracted twice into diethyl ether. The pooled ether extracts are evaporated to dryness under nitrogen and the residue is redissolved in a small volume of methanol and spotted on aluminum backed pre-coated thin layer chromatographic plates. The samples are then co-chromatographed with authentic reference 5-HETE in the solvent system--hexane:ether:acetic acid (50:50:3). After chromatography, the areas associated with 5-HETE standard are identified by autoradiography, cut out and quantitated by liquid scintillation.
Results are expressed as % inhibition of [^14 C]5-HETE synthesis. [formula]

Where a name gives a salt, the structure may show the parent alone. Read-outs that look alike come from different tables or passages of the source. A value given as a limit tells only on which side of the number the result lay.

Turning to `O=C(NCC(O)c1cccc(OCc2ccc3ccccc3n2)c1)c1cccs1` (stereo not shown) [Example 7B, N-[2-Hydroxy-2-[3-(2-quinolinylmethoxy)phenyl]ethyl]-2-thiophene carboxamide], the inhibition in vivo at 25 mg/kg in experiment [1] (25 mg/kg intraduodenal) stood at 81.9%.
Turning to `CN(C)S(=O)(=O)N(C)C[C@H](O)c1cccc(OCc2ccc3ccccc3n2)c1` [Example 2H, (1R)-1-[3-[(2-Quinolinyl)methoxy]phenyl]-2-(N-methyl-N-dimethylsulfamoyl)amino ethanol], the inhibition in vivo at 50 mg/kg is 25.4% in experiment [1] (po, 50 mg/kg peroral); 56% in experiment [1] (50 mg/kg intraduodenal); 2.5% in experiment [2] (50 mg/kg intraduodenal).
`CCN(CC)C(=O)N(C)C[C@H](O)c1cccc(OCc2nc3ccccc3n2C)c1` [Example 2A, (1R)-1-[3-[(1-Methyl-2-benzimidazoyl)methoxy]phenyl]-2-(N-methyl-N-diethylcarbamoyl)amino ethanol] yielded an inhibition at 50 µM in experiment [3] greater than 50%. Moreover, the IC50 in experiment [3] was determined as 16.4 µM. The values for the inhibition in vivo at 50 mg/kg in experiment [1] (50 mg/kg intraduodenal) and in experiment [2] (50 mg/kg intraduodenal) were 77.2% and 83.4%, respectively.
Consider `CN(C[C@H](O)c1cccc(OCc2ccc3ccccc3n2)c1)C(=O)c1ccncc1` [Example 2D, (1R)-1-[3-[(2-Quinolinyl)methoxy]phenyl]-2-[N-methyl-N-(4-pyridinoyl)]amino ethanol], for which, in experiment [3], the inhibition at 50 µM is less than 50%. The inhibition in vivo at 50 mg/kg in experiment [1] (50 mg/kg intraduodenal) worked out at 43.9%.
Consider `O=S(=O)(NCC(O)c1cccc(OCc2ccc3ccccc3n2)c1)C(F)(F)F` (stereo not shown) [Example 9, 1,1,1-Trifluoro-N-[2-hydroxy-2-[3-(2-quinolinylmethoxy)phenyl]ethyl]methanesulfonamide], for which the inhibition in vivo at 25 mg/kg in experiment [1] (po, 25 mg/kg peroral) is 75.6%; in experiment [1] (25 mg/kg intraduodenal), 84.8%.
On to `CN(C[C@H](O)c1cccc(OCc2ccc3ccccc3n2)c1)C(=O)N(c1ccccc1)c1ccccc1` [Example 2E, (1R)-1-[3-[(2-Quinolinyl)methoxy]phenyl]-2-(N-methyl-N-diphenylcarbamoyl)amino ethanol, hydrochloride], for which, in experiment [3], the inhibition at 50 µM is greater than 50%. Moreover, the inhibition in vivo at 50 mg/kg in experiment [1] (50 mg/kg intraduodenal) worked out at 21%.
Consider `CCNC(=O)N(C)C[C@H](O)c1cccc(OCc2ccc3ccccc3n2)c1` [Example 3], for which the inhibition in vivo at 25 mg/kg in experiment [1] (25 mg/kg intraduodenal) is 94.9%. Also, the inhibition in vivo at 50 mg/kg in experiment [1] (50 mg/kg intraduodenal) was 81.7%; in experiment [2] (po, 50 mg/kg peroral) it was 46.4%.
Take `CCOC(=O)N(C)C[C@H](O)c1cccc(OCc2ccc3ccccc3n2)c1` [Example 2K, (1R)-1-[3-[(2-Quinolinyl)methoxy]phenyl]-2-(N-methyl-N-ethylcarboxylate)amino ethanol]: the inhibition in vivo at 50 mg/kg in experiment [1] (50 mg/kg intraduodenal) is 70.6%.
`CCN(CC)C(=O)N(C)C[C@H](O)c1cccc(OCc2nc3ccccc3s2)c1` [Example 1, (1R)-1-[3-[(2-Benzthiazoyl)-methoxy]phenyl]-2-(N-methyl-N-diethylcarbamoyl)amino ethanol]: in experiment [3], the inhibition at 50 µM is greater than 50% and the IC50 came out at 40.4 µM. Besides, the inhibition in vivo at 50 mg/kg in experiment [1] (50 mg/kg intraduodenal) is 59.2%.
For the molecule `CCN(CC)C(=O)N(C)C[C@H](O)c1cccc(OCc2ccc3ccccc3n2)c1` [Example 2B, (1R)-1-[3-[(2-Quinolinyl)methoxy]phenyl]-2-(N-methyl-N-diethylcarbamoyl)amino ethanol], the inhibition in vivo at 50 mg/kg in experiment [2] (50 mg/kg intraduodenal) was determined as 75.8%.
For `CCN(CC)C(=O)N(CC)C[C@H](O)c1cccc(OCc2ccc3ccccc3n2)c1` [Example 2G, (1R)-1-[3-[(2-Quinolinyl)methoxy]phenyl]-2-(N-ethyl-N-diethylcarbamoyl)amino ethanol], the inhibition at 50 µM in experiment [3] was greater than 50%. The inhibition in vivo at 50 mg/kg in experiment [1] (50 mg/kg intraduodenal) stood at 65.1%.
On to `CCNC(=O)O[C@@H](CN(C)C(=O)NCC)c1cccc(OCc2ccc3ccccc3n2)c1` [Example 5, Ethylcarbamic acid (1R)-2-[[(ethylamino)carbonyl]methylamino]-1-[3-(2-quinolinylmethoxy)phenyl]ethyl ester, hydrochloride], for which the inhibition in vivo at 50 mg/kg in experiment [1] (po, 50 mg/kg peroral) came to 18.6%; in experiment [1] (50 mg/kg intraduodenal) it was 54.2%; in experiment [2] (50 mg/kg intraduodenal), 80.2%.
In the case of `CN(C)C(=O)N(C)C[C@H](O)c1cccc(OCc2ccc3ccccc3n2)c1` [Example 2F, (1R)-1-[3-[(2-Quinolinyl)methoxy]phenyl]-2-(N-methyl-N-dimethylcarbamoyl)amino ethanol], the inhibition at 50 µM in experiment [3] is greater than 50%. In addition, in experiment [1] (50 mg/kg intraduodenal), the inhibition in vivo at 50 mg/kg was found to be 92.6%.
In the case of `CCC(=O)N(C)C[C@H](O)c1cccc(OCc2nc3ccccc3n2C)c1` [Example 2C, (1R)-1-[3-[(1-Methyl-2-benzimidazoyl)methoxy]phenyl]-2-(N-methyl-N-propanoyl)amino ethanol], the inhibition at 50 µM in experiment [3] is less than 50%. In addition, the values for the inhibition in vivo at 50 mg/kg in experiment [1] (50 mg/kg intraduodenal) and in experiment [2] (50 mg/kg intraduodenal) were 63.9% and 65.6%, respectively.
`C#CCN(C)C[C@H](O)c1cccc(OCc2ccc3ccccc3n2)c1` [Example 8, α-[[Methyl-(2-propynyl)amino]methyl]-3-(2-quinolinylmethoxy)benzene methanol]: in experiment [1] (25 mg/kg intraduodenal), the inhibition in vivo at 25 mg/kg was determined as 41.2%.
As to `COC(=O)[C@@H]1CCCN1C(=O)N(C)C[C@H](O)c1cccc(OCc2ccc3ccccc3n2)c1` [Example 2I, (S)-1-[[[(R)-2-Hydroxy-2-[3-(2-quinolinylmethoxy)phenyl]ethyl]methylamino]carbonyl]-2-pyrrolidine carboxylic acid, methyl ester, hydrochloride], the inhibition in vivo at 50 mg/kg was 71.2% in experiment [1] (50 mg/kg intraduodenal) and 22.5% in experiment [2] (50 mg/kg intraduodenal).
For the molecule `O=C(NCC(O)c1cccc(OCc2ccc3ccccc3n2)c1)c1ccccn1` (stereo not shown) [Example 6, N-[2-Hydroxy-2-[3-(2-quinolinylmethoxy)phenyl]ethyl]-2-pyridine carboxamide], the inhibition in vivo at 25 mg/kg in experiment [1] (25 mg/kg intraduodenal) was determined as 19.8%.
Consider `CCN(CC)C(=O)N(C)C[C@@H](O)c1cccc(OCc2ccc3ccccc3n2)c1` [Example 2J, (1S)-1-[3-[(2-Quinolinyl)methoxy]phenyl]-2-(N-methyl-N-diethylcarbamoyl)amino ethanol], for which the inhibition in vivo at 25 mg/kg in experiment [2] (25 mg/kg intraduodenal) is 81.2%.
For `CCOC(=O)CC(=O)NCC(O)c1cccc(OCc2ccc3ccccc3n2)c1` (racemic) [Example 7C, 3-[[2-Hydroxy-2-[3-(2-quinolinylmethoxy)phenyl]ethyl]amino]-3-oxopropanoicacid, ethyl ester], the inhibition in vivo at 25 mg/kg in experiment [1] (25 mg/kg intraduodenal) was 24.9%.
For “N-[2-Hydroxy-2-[3-(2-quinolinyl)phenyl]ethyl]benzamide [Example 7A]”, the “% Inhibition of Max AUC” value in experiment [1] (25 mg/kg intraduodenal) is recorded as 18.1%.
As to `CCOC(=O)NCC(O)c1cccc(OCc2ccc3ccccc3n2)c1` (stereo not shown) [Example 2L, 1-[3-[(2-Quinolinyl)methoxy]phenyl]-2-(N-ethylcarboxylate)amino ethanol], in experiment [1] (25 mg/kg intraduodenal), the inhibition in vivo at 25 mg/kg was 35.6%.

The record behind these values is patent publication US4876346A, “Quinoline compounds” (American Home Products Corporation, priority 1986, dated 1989).
